Like-named read-outs stand apart in the source and are kept apart here.
Key:
HepG2-A16-CD81EGFP cells [1] = details: human, 50 uM
HepG2-A16-CD81EGFP cells [2] = test: cells; details: Homo sapiens, HepG2, read-out: % inhibition
[3] = system: Plasmodium berghei (Pb-Luc) exoerythrocytic-stage parasites; test: microbe, parasite or virus in culture
[4] = read-out: Inhibition% @ 50 uM rep1
[5] = read-out: Inhibition% @ 50 uM rep2

| Structure (SMILES) | HepG2 Tox% @ 50 uM rep1 (HepG2-A16-CD81EGFP cells [1]) [%] | HepG2 Tox% @ 50 uM rep2 (HepG2-A16-CD81EGFP cells [1]) [%] | inhibition at 50 µM (HepG2-A16-CD81EGFP cells [2]) [%] | inhibition at 50 µM [3, 4] [%] | inhibition at 50 µM [3, 5] [%] |
| --- | --- | --- | --- | --- | --- |
| COc1cccc(Nc2nc(NCCO)c3ccccc3n2)c1 [MMV011944] | 100 | 101 | 99.7 | 103 | 106 |
| CC1(c2ccccc2)Nc2ccccc2-c2nc3ccccc3n21 (stereo not shown) [MMV396715] | – | 102 | 98.6 | 104 | 106 |
| CCC(c1ccccc1)c1nn2c(-c3cccs3)nnc2s1 (stereo not shown) [MMV665876] | – | 96 | 93.6 | 99 | 103 |
| O=C(Nc1ccccc1O)c1ccc(Oc2cccc(C(=O)Nc3ccccc3O)c2)cc1 [MMV665888] | – | 100 | 98.7 | 102 | 104 |
| COc1ccc(-c2cc3c(nn2)-c2ccccc2C3=O)cc1 [MMV666026] | 21 | – | 21.5 | 61 | 71 |
| Cn1c(=O)c2cc(C(=O)NCCCN3CCCCCC3)sc2c2ccccc21 [MMV019313] | 100 | – | 99.9 | 104 | 106 |
| O=C(Nc1ccc(CN2CCOCC2)cc1)c1ccc(-c2cc(Cl)ccc2Cl)o1 [MMV020651] | – | 96 | 93.9 | 100 | 99 |
| CCOc1cc2c(cc1OCC)C(c1cc(Cl)c(O)c(OCC)c1)NCC2 (stereo not shown) [MMV000481] | 20 | – | 20.4 | 73 | 75 |
| COc1ccc(N2CCN(C(CNC(=O)CC(C)(C)C)c3ccc4c(c3)OCO4)CC2)cc1 (stereo not shown) [MMV665908] | -10 | – | -9.68 | 61 | 66 |
| CCOc1ccc(-n2cc(-c3ccccc3)c3c(SCc4cc(C)ccc4C)ncnc32)cc1 [MMV085471] | -12 | – | -12.2 | 11 | -7 |
| COCCNCC(O)Cn1c2ccc(Cl)cc2c2cc(Cl)ccc21 (stereo not shown) [MMV019017] | – | 99 | 96.7 | 103 | 102 |
| CN(C)c1ccc(N=Cc2ccc(N3CCOCC3)cc2)cc1 [MMV073843] | -8 | – | -8.32 | 88 | 83 |
| CCOc1ccc2c(c1)CN(Cc1ccc(Cl)cc1)CO2 [MMV000443] | – | – | 95.5 | 102 | 104 |
| COc1ccc(C=C2SC(Nc3ccccc3)=NC2=O)cc1 [MMV665836] | – | – | 83.2 | 103 | 103 |
| CCCCCCc1cc2cc(-c3nc4ccccc4[nH]3)c(=Nc3ccccc3C)oc2cc1O [MMV666597] | – | – | 85.4 | 102 | 103 |
| CCOc1c(Br)cc(C2C(C(=O)OC)=CN(C)C=C2C(=O)OC)cc1OC [MMV006764] | – | – | 31.2 | 103 | 103 |
| COc1cccc(Nc2nc(N)c3ccccc3n2)c1 [MMV019199] | – | – | 88.3 | 98 | 99 |
| CCCCCCC(O)(c1ccc(F)cc1)C(CN1CCOCC1)c1ccccc1 (stereo not shown) [MMV000621] | – | – | 98.1 | 104 | 103 |
| CCOc1ccccc1NC(=O)CN1CCN(C(=O)c2ccco2)CC1 [MMV007791] | – | – | -15 | 16 | 43 |
| CCOc1c(Cl)cc(CNC(C)C(O)c2ccccc2)cc1OC (stereo not shown) [MMV665857] | – | – | 98.7 | 102 | 103 |
| CCCCCCc1cc2cc(-c3csc(C=Cc4ccccc4)n3)c(=O)oc2cc1O [MMV666692] | – | – | 99.5 | 104 | 104 |
| COc1ccc(CNC(=O)c2cc3c(=O)n4ccccc4nc3n(CCc3ccccc3)c2=N)cc1 [MMV665881] | – | – | 1.19 | 68 | 76 |
| CCCCc1c(CCC)c(=N)c2ccccc2n1C [MMV007764] | – | – | 83.9 | 103 | 103 |
| COc1ccc(-c2cn3c(C(=O)Nc4ccccc4Cl)c(-c4ccccc4)c4c3n2CCCC4)cc1 [MMV020403] | – | – | 52.5 | 102 | 103 |
| COc1ccc(C(=O)NC(c2ccccc2Cl)c2cc(Cl)c3cccnc3c2O)cc1 (stereo not shown) [MMV666022] | – | – | 99.5 | 103 | 104 |
| Oc1ccc(C(=C(Cl)Cl)c2ccc(O)cc2)cc1 [MMV665949] | – | – | 87.2 | 98 | 99 |

Reference: publication PMC4890880 (ACS infectious diseases, 2016)
